PubChem BioAssay (NCI)
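These data come from cells grown in 96-well plates and exposed to compound for 48 hours at five concentrations. Abbreviation: GI50, concentration required for 50% inhibition of growth. TGI: total growth inhibition.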

Assays:
Test in all cases: NCI anticancer screen, dose series, 48 h
DLD-1 colon = test system: DLD-1 colon
KM20L2 colon = test system: KM20L2 colon
M19-MEL melanoma = test system: M19-MEL melanoma
DMS 114 small cell lung = test system: DMS 114 small cell lung
DMS 273 small cell lung = test system: DMS 273 small cell lung
LOX IMVI melanoma = test system: LOX IMVI melanoma
SNB-78 CNS = test system: SNB-78 CNS
A549 NSCLC = test system: A549 NSCLC
HOP-18 NSCLC = test system: HOP-18 NSCLC
LXFL 529 NSCLC = test system: LXFL 529 NSCLC
COLO 205 colon = test system: COLO 205 colon
XF 498 CNS = test system: XF 498 CNS
MDA-MB-231 breast = test system: MDA-MB-231 breast
MDA-MB-435 = test system: MDA-MB-435
MDA-N = test system: MDA-N

Compound | TGI (LOX IMVI melanoma) [µM] | TGI (A549 NSCLC) [µM] | TGI (COLO 205 colon) [µM] | TGI (MDA-MB-231 breast) [µM] | TGI (MDA-MB-435) [µM] | TGI (MDA-N) [µM] | further results
C[N+]1(C)C/C(=C\c2ccc(O)cc2)C(=O)/C(=C/c2ccc(O)cc2)C1 | > 100 | > 100 | > 100 |  |  |  | TGI (DLD-1 colon): > 100 µM; TGI (KM20L2 colon): > 100 µM; TGI (M19-MEL melanoma): > 100 µM; TGI (DMS 114 small cell lung): > 100 µM; TGI (DMS 273 small cell lung): > 100 µM; TGI (SNB-78 CNS): > 100 µM; TGI (HOP-18 NSCLC): > 100 µM; TGI (LXFL 529 NSCLC): > 100 µM
NC(=S)N/N=C1\CC(c2ccccc2)Nc2ccccc21 (stereo unspecified) | > 100 |  | 73.3 |  |  |  | TGI (DLD-1 colon): > 100 µM; TGI (KM20L2 colon): 47.2 µM; TGI (XF 498 CNS): 35.2 µM; TGI (M19-MEL melanoma): > 100 µM; TGI (DMS 114 small cell lung): 63.4 µM; TGI (DMS 273 small cell lung): > 100 µM; TGI (SNB-78 CNS): > 100 µM; TGI (HOP-18 NSCLC): > 100 µM; TGI (LXFL 529 NSCLC): > 100 µM
CCCCCCCCc1ccc(CCC(N)(CO)CO)cc1 |  |  | 2.92 | 1.98 | 3.45 |  | GI50 (COLO 205 colon): 1580 nM; GI50 (MDA-MB-231 breast): 0.521 µM; GI50 (MDA-MB-435): 1820 nM
COc1cc(O)c2c(=O)c(OC)c(-c3ccc(OC)c(OC)c3)oc2c1.[Zn+2] | > 100 | > 100 | > 100 | 65.4 |  | > 100 | GI50 (LOX IMVI melanoma): 7.68 µM; GI50 (MDA-MB-231 breast): 3.83 µM
CCOc1ccc(N=Nc2ccc(-c3ccc(N=Nc4c(O)ccc5cc(S(=O)(=O)O)cc(S(=O)(=O)O)c45)cc3)cc2)cc1 |  | > 100 | > 100 | > 100 | > 100 |  | 
CC(=O)Oc1cc(/C=C/c2ccc(O)cc2)cc(OC(C)=O)c1 |  | > 100 | > 100 | > 100 | > 100 |  | 
CC(=O)c1c(C)cc2cccc(OC3OC(CO)C(O)C(O)C3O)c2c1O (stereo unspecified) (tested in a mixture with another compound) | > 100 | > 100 | > 100 | > 100 | > 100 | > 100 | 
O=S(=O)([O-])[O-].[Fe+2].[OH2+]c1c(Cl)cc(Cl)cc1/C=N/Nc1ccccn1 | 2.79 | 4.14 | 3.47 |  |  |  | TGI (DLD-1 colon): 1.8 µM; TGI (KM20L2 colon): 3.66 µM; TGI (M19-MEL melanoma): 4.86 µM; TGI (DMS 114 small cell lung): 0.595 µM; GI50 (HOP-18 NSCLC): 550 nM; TGI (HOP-18 NSCLC): 1.93 µM; TGI (LXFL 529 NSCLC): 1.39 µM
Cc1cccc(/C=C2/C(=O)Nc3ccccc32)n1 | > 62.6 | > 85 | > 57 | 34.3 | 60.9 |  | GI50 (MDA-MB-231 breast): 11.6 µM
Cc1ncc(COP(=O)(O)O)c(C)c1O | > 100 | > 100 |  | > 100 | > 100 | > 100 | 
Nc1ccc(S(=O)(=O)NCCS(=O)(=O)O)cc1 | > 100 | > 100 |  | > 100 | > 100 | > 100 | 
N=C(N)SCCN1CCCCC1 | 48.4 | > 100 | > 100 | 44.6 | 52.7 | > 100 | 
C[N+]1(c2ccccc2)C=C(c2ccccc2)SC1=S (stereo unspecified) | > 100 | > 100 | > 100 | > 100 | > 100 |  | 
